Results taken from patent US10501454B2, “Monocyclic β-lactam-siderophore conjugate, and preparation method and use thereof” (Shanghai Institute of Materia Medica, Chinese Academy of …, priority 2016, dated 2019).
Structures can show the parent of a compound that is named as a salt.

Assays:
[1] = system: Escherichia coli ATCC 35218; experiment: MIC, broth microdilution, normal MH medium; type: cell-based; conditions: Escherichia coli, ATCC35218, quality control strain, read-out: Antibacterial activity MIC, Escherichia coli ATCC 35218
Method: Strain for quality control: Escherichia coli ATCC35218, purchased from National Center of Clinical Laboratory.
(§1) Medium: MH liquid medium (OXOID).
(§2) Culture condition: cells were incubated at 35-37° C. for 16-18 h.
(§3) The broth microdilution method recommended by Clinical and Laboratory Standards Institute (CLSI), Performance Standards for Antimicrobial Susceptibility Testing; Twenty-Third Informational Supplement, M02-All, M07-A9 and M11-A8, 2013 was used to determine the MIC value of each test sample against each test strain in the normal MH medium and iron-deficient MH medium.
(§4) After diluting each sample to different concentrations with normal MH medium, 100 μl of each test sample solution at different concentrations was separately aspirated onto a 96-well sterile polystyrene plate. Drug solutions were added to the 1st to 10th well with the final concentrations of 16, 8, 4, 2, 1, 0.5, 0.25, 0.125, 0.06, and 0.03 mg/L in each well, respectively. The 11th well, as a blank control, was not added with drugs and bacteria. The 12th well, as a bacterial growth control, was added with bacteria but no drug.
The test bacterial liquid was adjusted to a bacterial suspension of 0.5 Mcfarland standard with physiological saline, and diluted with MH broth at 1:100, and then added to the drug solution so that a final concentration of the bacterial liquid was approximately 10^4 CFU/ml; 100 μl of the bacterial liquid was further added to each of the above wells (the total volume in each well is 200 μl), which was sealed and placed in a 35-37° C. incubator for 18-20 h for testing the result. The OD600 value was measured by a microplate reader, Minimal Inhibitory Concentration (MIC) of a drug is the lowest concentration of the drug which prevents growth of bacteria in the wells. 1.2.2 MIC in iron-deficient MH medium

[2] = system: Klebsiella pneumoniae (4 strains); experiment: MIC, broth microdilution, normal MH medium; type: cell-based
Method: Supplier of the strains: all of the above strains were provided by Sichuan Primed Shines Bio-tech Co., Ltd. A single colony was isolated by streaking on agar plates for each strain prior to the experiment, and the cells freshly cultured at 37° C. overnight were appropriately diluted for the experiment.
as §1, §2, §3, §4
The OD600 value was measured by a microplate reader, Minimal Inhibitory Concentration (MIC) of a drug is the lowest concentration of the drug which prevents growth of bacteria in the wells. 1.2.2 MIC in iron-deficient MH medium

[3] = system: Escherichia coli ECO-14-4 (ESBLs); experiment: In vivo efficacy in mice systemically infected with Escherichia coli ECO-14-4 (ESBLs); conditions: Escherichia coli; Kunming mice, intraperitoneal infection, drug s.c. 0.5 h and 4 h after infection, deaths over 7 days, Bliss method; read-out: ED50 Subcutaneous injection
Method: 3.1 Test strains: Clinically isolated pathogenic Escherichia coli ECO-14-4 (ESBLs), supplied by Sichuan Primed Shines Bio-tech Co., Ltd.
3.2 Test animals: Kunming mice, age: 4 to 5 weeks, weight: 18 to 22 g, half male, half female, SPF grade.
3.3 Test methods: Mice were randomly divided into several groups, 5 mice for each group, half male and half female, and 5 doses for each test drug: 1.25, 2.5, 5, 10 and 20 mg/kg. The mice were intraperitoneally injected with 0.5 mL of […] CFU/mL bacterial suspension for each mouse, and subcutaneously injected with the drug at the designed dose 0.5 h and 4 h after infection. The subcutaneous injection volume was 0.2 ml/20 g mouse weight; the number of deaths in mice was observed and recorded for 7 consecutive days. According to the number of deaths in mice, the half effective dose ED50 was calculated according to the Bliss method using the DAS 1.0 software, edited by Sun Ruiyuan et al.

[4] = system: multidrug-resistant Klebsiella pneumoniae KR15-4 (KPC2); experiment: In vivo efficacy in mice systemically infected with multidrug-resistant Klebsiella pneumoniae KR15-4 (KPC2); conditions: Klebsiella pneumoniae; Kunming mice, intraperitoneal infection, drug s.c. 0.5 h and 4 h after infection, deaths over 7 days, Bliss method; read-out: ED50 Subcutaneous injection
Method: 4.1 Test strains: clinically isolated pathogenic multidrug-resistant Klebsiella pneumoniae KR15-4 (KPC2), provided by Sichuan Primed Shines Bio-tech Co., Ltd.
4.2 Test animals: Kunming mice, age: 4 to 5 weeks, weight: 18 to 22 g, half male, half female, SPF grade.
4.3 Test methods: Mice were randomly divided into several groups, 5 mice for each group, half male and half female, and 4 doses for each test drug: 12.5, 25, 50 and 100 mg/kg. The mice were intraperitoneally injected with 0.5 mL of 3.0×10^6 CFU/mL bacterial suspension for each mouse, and subcutaneously injected with the drug at the designed dose 0.5 h and 4 h after infection. The subcutaneous injection volume was 0.2 ml/20 g mouse weight; the number of deaths in mice was observed and recorded for 7 consecutive days. According to the number of deaths in mice, the half effective dose ED50 was calculated according to the Bliss method using the DAS 1.0 software, edited by Sun Ruiyuan et al.

CC(C)C(O/N=C(\C(=O)N[C@@H]1C(=O)N(OS(=O)(=O)O)C1(C)C)c1csc(N)n1)c1cc(=O)c(O)cn1O (stereo partly drawn) [Compound 12, (3S)-3-((Z)-2-(2-aminothiazol-4-yl)-2-((1-(1,5-dihydroxy-4-oxo-1,4-dihydropyridin-2-yl)methylisopropyloxy)imine)acetamido)-2,2-dimethyl-4-oxoazetidine-1-hydrogen sulfate]
MIC [1]: < 0.03 µg/mL
MIC ([2]; Klebsiella pneumoniae, multi-drug resistant clinical isolates (KPC2), read-out: Antibacterial activity MIC, Klebsiella pneumoniae (4 strains)): 0.5 to 1 µg/mL
times more effective than BAL30072 in inhibitory activity against Klebsiella pneumoniae ([2]; from MIC of Table 2): 64-128 times
ED50 [3]: 3.37 mg/kg
ED50 [4]: 10.2 mg/kg
